In US11944626B2, “Small molecule inhibitors of ALDH and uses thereof” (The Regents of the University of Michigan, priority 2016, dated 2024) one finds IC50 and remaining activity data, which are given here for 17 compounds.

The term IC50 denotes the concentration at which inhibition is half-maximal.

What all share (assay): Inhibition of ALDH isoenzymes (NAD(P)H formation at 340 nm, purified recombinant enzyme)
Format in all cases: biochemical

In one assay the target is T1, ALDH1A2 (Homo sapiens, UniProt O94788).
T1 sequence (O94788 1-518): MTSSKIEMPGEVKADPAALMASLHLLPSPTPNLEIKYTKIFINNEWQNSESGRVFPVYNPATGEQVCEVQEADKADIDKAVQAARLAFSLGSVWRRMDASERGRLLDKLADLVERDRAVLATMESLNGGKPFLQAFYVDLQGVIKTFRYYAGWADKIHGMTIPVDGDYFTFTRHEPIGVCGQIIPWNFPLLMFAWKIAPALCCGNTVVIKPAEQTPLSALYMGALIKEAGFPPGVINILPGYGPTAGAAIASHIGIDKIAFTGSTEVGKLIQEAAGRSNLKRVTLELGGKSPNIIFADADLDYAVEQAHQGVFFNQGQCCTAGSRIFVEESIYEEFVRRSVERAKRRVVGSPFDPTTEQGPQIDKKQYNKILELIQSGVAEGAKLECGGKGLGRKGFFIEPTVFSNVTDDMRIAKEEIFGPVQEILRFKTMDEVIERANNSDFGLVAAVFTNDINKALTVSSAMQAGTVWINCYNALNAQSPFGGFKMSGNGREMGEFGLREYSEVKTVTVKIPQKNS
Conditions: for IC50: 100-200 nM enzyme, 200 μM NAD+, 100 μM propionaldehyde, pH 7.5, 25° C.; for remaining activity at 20 µM: compound at 20 μM, read-out: ALDH1A2 % Control at 20 μM.

The target in another assay is T2, ALDH1A3 (Homo sapiens, UniProt P47895).
T2 sequence (P47895 1-512): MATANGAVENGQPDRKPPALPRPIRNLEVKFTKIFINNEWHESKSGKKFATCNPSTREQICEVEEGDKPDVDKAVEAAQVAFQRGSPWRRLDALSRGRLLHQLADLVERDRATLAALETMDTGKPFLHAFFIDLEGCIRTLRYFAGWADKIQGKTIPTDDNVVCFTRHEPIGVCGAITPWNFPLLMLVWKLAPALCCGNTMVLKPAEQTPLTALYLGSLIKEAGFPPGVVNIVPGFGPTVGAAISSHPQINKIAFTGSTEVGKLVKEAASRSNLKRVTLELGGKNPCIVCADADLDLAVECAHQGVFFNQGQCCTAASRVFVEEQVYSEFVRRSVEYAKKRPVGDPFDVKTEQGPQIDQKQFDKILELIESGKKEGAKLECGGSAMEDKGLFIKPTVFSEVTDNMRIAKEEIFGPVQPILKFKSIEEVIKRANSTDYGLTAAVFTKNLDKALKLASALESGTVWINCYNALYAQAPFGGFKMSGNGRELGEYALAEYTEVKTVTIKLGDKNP
The note with it: for IC50: 100-200 nM enzyme, 200 μM NAD+, 100 μM propionaldehyde, pH 7.5, 25° C.; for remaining activity at 20 µM: compound at 20 μM, read-out: ALDH1A3 % Control at 20 μM.

The target of another assay is T3, ALDH1A1 (Homo sapiens, UniProt P00352).
T3 sequence (P00352 1-501): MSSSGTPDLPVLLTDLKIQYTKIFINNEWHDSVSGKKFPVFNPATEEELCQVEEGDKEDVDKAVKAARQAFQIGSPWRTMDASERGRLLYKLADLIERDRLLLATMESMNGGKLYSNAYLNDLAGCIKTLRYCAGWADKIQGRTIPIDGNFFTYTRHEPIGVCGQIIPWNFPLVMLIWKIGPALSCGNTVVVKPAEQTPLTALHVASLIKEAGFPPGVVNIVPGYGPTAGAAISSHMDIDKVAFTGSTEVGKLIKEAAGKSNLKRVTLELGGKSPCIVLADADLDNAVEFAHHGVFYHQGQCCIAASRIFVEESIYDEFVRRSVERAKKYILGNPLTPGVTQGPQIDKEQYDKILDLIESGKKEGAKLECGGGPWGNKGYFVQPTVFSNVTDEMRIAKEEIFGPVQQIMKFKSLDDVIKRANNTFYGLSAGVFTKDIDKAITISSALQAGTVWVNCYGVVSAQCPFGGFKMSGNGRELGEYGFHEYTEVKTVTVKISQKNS
Conditions: for IC50: 100-200 nM enzyme, 200 μM NAD+, 100 μM propionaldehyde, pH 7.5, 25° C.; for remaining activity at 20 µM: compound at 20 μM, read-out: ALDH1A1 % Control at 20 μM.

In a further assay the target is T4, ALDH2 (Homo sapiens, UniProt P05091).
T4 sequence (P05091 18-517): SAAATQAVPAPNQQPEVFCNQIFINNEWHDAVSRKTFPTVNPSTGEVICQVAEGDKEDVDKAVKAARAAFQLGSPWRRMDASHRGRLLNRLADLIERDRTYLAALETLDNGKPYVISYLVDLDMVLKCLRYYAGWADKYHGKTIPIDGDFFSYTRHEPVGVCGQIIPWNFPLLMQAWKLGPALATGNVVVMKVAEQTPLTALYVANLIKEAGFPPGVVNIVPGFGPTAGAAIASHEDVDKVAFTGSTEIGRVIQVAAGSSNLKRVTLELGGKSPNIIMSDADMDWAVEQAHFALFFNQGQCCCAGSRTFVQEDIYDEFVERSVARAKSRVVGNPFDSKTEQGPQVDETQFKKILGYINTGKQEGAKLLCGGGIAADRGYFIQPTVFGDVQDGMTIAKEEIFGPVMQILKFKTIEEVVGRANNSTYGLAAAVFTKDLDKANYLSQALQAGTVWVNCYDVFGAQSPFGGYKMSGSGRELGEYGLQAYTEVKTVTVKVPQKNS
The note with it: compound at 20 μM; read-out: ALDH2 % Control at 20 μM.
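For ALDH2 % Control at 20 μM in this document: run at 25 °C, started by adding substrate after 2 min preincubation, with 100-200 nM ALDH2, 200 µM NAD+, 100 µM propionaldehyde, 1% DMSO in BES buffer pH 7.5.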

In the case of `Cc1ccccc1-n1c(SCc2cccc(F)c2)nc2[nH]ncc2c1=O` [Example 1, 6-((3-fluorobenzyl)thio)-5-(o-tolyl)-1H-pyrazolo[3,4-d]pyrimidin-4(5H)-one], the IC50 on ALDH1A2 was 4.7 µM; on ALDH1A3, more than 20 µM.
For `CCn1ncc2c(=O)n(-c3ccccc3C)c(SCc3cccc(F)c3)nc21` [Example 5, 1-ethyl-6-((3-fluorobenzyl)thio)-5-(o-tolyl)-1H-pyrazolo[3,4-d]pyrimidin-4(5H)-one], the IC50 at ALDH1A1 is 0.35 µM; on ALDH1A2, 15 µM; at ALDH1A3 it was more than 10 µM. Besides, on ALDH2, the remaining activity at 20 µM is 93%.
The corresponding values for `CCn1cc2c(=O)n(-c3ccccc3C)c(SCc3cccc(F)c3)nc2n1` [Example 6, 2-ethyl-6-((3-fluorobenzyl)thio)-5-(o-tolyl)-2H-pyrazolo[3,4-d]pyrimidin-4(5H)-one] are 0.4 µM, 5.2 µM, 7.5 µM and 91%.
As for `O=c1c2cnn(C3COC3)c2nc(SCc2cccc(F)c2)n1-c1ccccc1` [Example 18, 6-((3-fluorobenzyl)thio)-1-(oxetan-3-yl)-5-phenyl-H-pyrazolo[3,4-d]pyrimidin-4(5H)-one], the remaining activity at 20 µM on ALDH1A1 worked out at 2%; at ALDH1A2, 7%; on ALDH1A3, 9%.
For `Cc1ccccc1-n1c(NCc2cccc(F)c2)nc2[nH]ncc2c1=O` [Example 22, 6-((3-fluorobenzyl)amino)-5-(o-tolyl)-1H-pyrazolo[3,4-d]pyrimidin-4(5H)-one], the remaining activity at 20 µM at ALDH1A1 is 61%; on ALDH1A2 it was 96%; on ALDH1A3 it was 90%; at ALDH2 it was 96%.
In the case of `Cc1ccccc1-n1c(NCCc2cccc(F)c2)nc2c(cnn2C)c1=O` [Example 23, 6-((3-fluorophenethyl)amino)-1-methyl-5-(o-tolyl)-1H-pyrazolo[3,4-d]pyrimidin-4(5H)-one], the remaining activity at 20 µM turned out to be 66% at ALDH1A1, 68% on ALDH1A2, 100% at ALDH1A3 and 94% on ALDH2.
For `Cc1ccccc1-n1c(OCc2cccc(F)c2)nc2c(cnn2C)c1=O` [Example 24, 6-((3-fluorobenzyl)oxy)-1-methyl-5-(o-tolyl)-1H-pyrazolo[3,4-d]pyrimidin-4(5H)-one], the concentration for half-maximal inhibition (IC50) on ALDH1A1 turned out to be 1.2 µM. Further, the remaining activity at 20 µM at ALDH1A2 came to 72%; at ALDH1A3, 66%; on ALDH2, 95%.
Take `Cn1ncc2c(=O)n(-c3ccccc3)c(COc3cccc(F)c3)nc21` [Example 25, 6-((3-fluorophenoxy)methyl)-1-methyl-5-phenyl-1H-pyrazolo[3,4-d]pyrimidin-4(5H)-one]: the remaining activity at 20 µM is 24% on ALDH1A1, 65% on ALDH1A2, 83% at ALDH1A3 and 101% on ALDH2.
Turning to `Cn1ncc2c(=O)n(-c3ccccc3)c(CNCc3cccc(F)c3)nc21` [Example 26, 6-(((3-fluorobenzyl)amino)methyl)-1-methyl-5-phenyl-1H-pyrazolo[3,4-d]pyrimidin-4(5H)-one], the remaining activity at 20 µM at ALDH1A1 came to 28%; at ALDH1A2, 77%; at ALDH1A3 it was 74%; on ALDH2, 98%.
With `Cc1ccccc1-n1c(SCc2cccc(F)c2)nc2n[nH]c(C)c2c1=O` [Example 39, 6-((3-fluorobenzyl)thio)-3-methyl-5-(o-tolyl)-2H-pyrazolo[3,4-d]pyrimidin-4(5H)-one], at ALDH1A1, the IC50 came to 1.2 µM. In addition, the remaining activity at 20 µM at ALDH1A2 worked out at 93%; at ALDH1A3, 79%; at ALDH2, 95%.
On to `Cn1ncc2c(=O)n(C3CCCCC3)c(SCc3cccc(F)c3)nc21` [Example 44, 5-cyclohexyl-6-((3-fluorobenzyl)thio)-1-methyl-1H-pyrazolo[3,4-d]pyrimidin-4(5H)-one], for which the remaining activity at 20 µM on ALDH1A1 is 37%; on ALDH1A2, 36%; on ALDH1A3 it was 43%; on ALDH2, 177%.
On the same counts, the results for `Cn1ncc2c(=O)n(C3CCCC3)c(SCc3cccc(F)c3)nc21` [Example 45, 5-cyclopentyl-6-((3-fluorobenzyl)thio)-1-methyl-1H-pyrazolo[3,4-d]pyrimidin-4(5H)-one] are 46%, 37%, 95% and 117%.
As for `Cn1ncc2c(=O)n(-c3ccccc3)c(CCc3cccc(F)c3)nc21` [Example 48, 6-(3-fluorophenethyl)-1-methyl-5-phenyl-1H-pyrazolo[3,4-d]pyrimidin-4(5H)-one], the results for the remaining activity at 20 µM at ALDH1A1, on ALDH1A3 and on ALDH2 were 24%, 26% and 98%, respectively.
With `Cn1ncc2c(=O)n(-c3ccccc3F)c(SCc3cccc(F)c3)nc21` [Example 56, 6-((3-fluorobenzyl)thio)-5-(2-fluorophenyl)-1-methyl-1H-pyrazolo[3,4-d]pyrimidin-4(5H)-one], on ALDH1A3, the remaining activity at 20 µM was 9%.
On to `CC(Sc1nc2c(cnn2C)c(=O)n1-c1ccccc1)c1cccc(O)c1` (stereo not shown) [Example 78, 6-((1-(3-hydroxyphenyl)ethyl)thio)-1-methyl-5-phenyl-1H-pyrazolo[3,4-d]pyrimidin-4(5H)-one], for which the remaining activity at 20 µM at ALDH1A1 turned out to be 4%; at ALDH1A2 it was 0%; on ALDH2, 91%.
On the same counts, the results for `CC(Sc1nc2c(cnn2C)c(=O)n1-c1ccccc1)c1ccccn1` (stereo not shown) [Example 79, 1-methyl-5-phenyl-6-((1-(pyridin-2-yl)ethyl)thio)-1H-pyrazolo[3,4-d]pyrimidin-4(5H)-one] are 9%, 1% and 92%.
The corresponding values for `CC(Sc1nc2c(cnn2C)c(=O)n1-c1ccccc1)c1cccnc1` (stereo not shown) [Example 80, 1-methyl-5-phenyl-6-((1-(pyridin-3-yl)ethyl)thio)-1H-pyrazolo[3,4-d]pyrimidin-4(5H)-one] are 6%, 7% and 96%.
